Measurements from patent US6489307B1, “Antisense compositions targeted to β1-adrenoceptor-specific mRNA and methods of use” (University of Florida, priority 1998, dated 2002).
“Also recorded” adds a separate entry of the source.

Legend:
β1-AR protein = assay: Western blot of β1-AR protein in myocardium; type: in vivo, Sprague-Dawley rats; conditions: Western analysis
Protocol: Myocardial tissues were homogenized and lysed in boiling lysis buffer (1% SDS, 0.1% Triton X-100®, and 10 mmol/L Tris-HCl, pH 7.4) and centrifuged at 10,000 RPM for 30 minutes at 4° C. The lysate protein from myocardial tissues (20 μg/lane) was separated by 8% SDS-PAGE using a Bio-Rad Mini-Protean cell, transferred to nitrocellulose membrane (Amersham). After incubation in blocking solution (4% non-fat milk, Sigma), membranes were incubated with 1:1000 dilation primary antibody (polycolonal antibody to β1-AR, Santa Cruz Biotechnology) for overnight at 4° C. Membranes were washed and incubated with 1:2000 dilution second antibody (Amersham) for one hr. The membranes were detected with the ECL system, as described previously (Yang et al, 1998; Li et al., 1999).

[1] = Hematology after repeated injections; type: in vivo, rat (SHR); conditions: for MPV: after repeated administration
Protocol: Safety profiles including liver transaminases, hematology, immune response and tissue pathology were investigated during three repeated injections of β1-AS-ODNs for extended periods of time.
Hematological parameters were measured after three repeated injections of β1-AS-ODN. There was no change in total leukocyte count (WBC), platelet count, hematocrit and mean platelet volume (MPV) among three groups (Table 6).

isolated rat heart = assay: Isolated perfused heart model, myocardial ischemia-reperfusion; type: in vivo, Sprague-Dawley rats; conditions: for ischemia-reperfusion-induced myocardial dysfunction (LVSP, dLVP, LVEDP, CPP): ODN 200 μg/rat i.v. with liposomes 4 days before, 30 min ischemia, 30 min reperfusion; for ischemia-reperfusion induced ventricular abnormality (dLVP, CPP, LVEDP): ODN 1 mg/kg i.v. 4 days before, atenolol 2 mg/kg 6 hr before
Protocol: Male Sprague-Dawley rats weighing 200-250 g were injected intravenously with either AS-ODNs (n=7) or IN-ODNs (n=7) at a dose of 200 μg/rat 4 days before excising the hearts. DOTAP/DOPE liposomes (700 μg/rat) were given along with ODNs.
The hearts were excised rapidly and placed in ice-cold Kreb-Henseleit buffer (mmol/L: NaCl 118, KCl 4.7, KH2PO4 1.2, MgSO4 1.2, CaCl2 1.25, NaHCO3 25, and glucose 11, pH 7.4). Within one min, the hearts were transferred to an isolated perfusion apparatus and perfused via the aorta with oxygen-saturated (95% O2+5% CO2) Kreb-Henseleit buffer kept at 37° C. with the use of a MasterFlex pump (model 7015-21, Cole-Palmer Instrument Co.) according to the modified Langendroff procedure (Yang et al., 1998; Neely and Rovetto, 1975). The heart was placed in a semi-closed circulating water-warmed (37° C.) air chamber, paced atrially with a Medtronic 5320 pacemaker at a rate of 300 bpm, and perfused at a constant flow (5.5-6.0 ml/per min). Coronary perfusion pressure (CPP) was measured via a catheter placed just proximal to the aorta and connected to a Gould Statham P23ID pressure transducer. A latex balloon filled with water and connected to a Gould Statham P23ID pressure transducer was inserted in the left ventricle through the left atrium to measure left ventricular end-diastolic pressure (LVEDP), left ventricular systolic pressure (LVSP), and developed left ventricular pressure (dLVP) (dLVP=LVSP−LVEDP). LVEDP during equilibration was set at 5 to 7 mmHg. All measurements were continuously recorded on a 4-channel record (Astro-Med).
Six hearts from saline-treated rats were continuously perfused with Kreb-Henseleit buffer for 80 min and served as sham control. Hearts from other rats, after 20 min of equilibration, were subjected to 30 min of ischemia followed by 30 min of reperfusion. After completion of the study, hearts were frozen in liquid-nitrogen for β1-AR analysis by binding assay, β1-AR protein analyses by Western blot, β1-AR mRNA analysis by reverse transcription-polymerase chain reaction (RT-PCR™), and measurement of MDA.
The protective effects of β1-AS-ODNs were tested in a rat model of myocardial ischemia-reperfusion. Five groups of SD rats were studied. Sham controls (n=6) were injected with saline and perfused continuously for 80 min without ischemia/reperfusion (I/R). In other groups, hearts were perfused for 20 min and subjected to global ischemia (30 min) followed by reperfusion (30 min). […] AS-ODN+I/R (n=7) or INV-ODN+I/R (n=7) were injected iv. with 1 mg/kg β1-AS-ODN or INV-ODN 4 days before the I/R study was performed.

β1-AR mRNA = assay: RT-PCR of β1-AR mRNA in myocardium; type: in vivo, Sprague-Dawley rats; conditions: adjusted for GAPDH
Protocol: Total RNA was isolated from rat myocardium with the single step acid-guanidinum thiocyanate-phenol-chloroform method and quantified (Chomcznski and Sacchi, 1987). One μg of total RNA was reverse transcribed with oligo-dT (Promega) and M-MLV reverse transcriptase (Promega) at 37° C. for one hr. 1.5 μl of RT material was amplified with Taq DNA polymerase (Promega) using a primer pair specific to β1-AR:
PCR™ product was 432 base pairs. For PCR, 35 cycles were used at 95° C. for one minute, 60° C. for one minute, and 72° C. for one min. The RT-PCR™ amplified samples were visualized on 1.8% agarose gels using ethidium bromide. A primer pair of rat GAPDH was used as control:
For PCR™, 35 cycles were used at 95° C. for one min, 60° C. for one min, 72° C. for one min. PCR™ product was 504 base pairs. Relative intensity of bands of interest were analyzed by NSF-300G Scanner (Microtek) (Yang et al., 1998; Li et al., 1999).

Substance | ischemia-reperfusion-mediated increase in β1-AR protein expression (β1-AR protein) | MPV [1] [fL] | WBC ([1]; rat, in vivo) | hematocrit ([1]; rat, in vivo) [%] | platelet ([1]; rat, in vivo) | ischemia-reperfusion-induced myocardial dysfunction (LVSP, dLVP, LVEDP, CPP) (isolated rat heart) | ischemia-reperfusion induced ventricular abnormality (dLVP, CPP, LVEDP) (isolated rat heart) | increase of mRNA for β1-AR in myocardium (β1-AR mRNA) | total leukocyte count (WBC), platelet count, hematocrit and MPV ([1]; rat, in vivo) | preserving dLVP after ischemia-reperfusion, comparison with atenolol (isolated rat heart; 200 μg/rat 4 days before) | overall protective effects, comparison with atenolol (isolated rat heart; 1 mg/kg i.v. 4 days before) | restoration of dLVP, comparison with atenolol (isolated rat heart; 1 mg/kg i.v. 4 days before)
5′-AGCCGTACCCGCGCC-3′ (phosphorothioate backbone, further chemistry not given here) [Inverted ODN, 15-mer inverted ODN control, reference compound] | no effect | 7.2 ± 0.20 | 5.75 ± 1.15 10^3/mm^3 | 46.0 ± 0.1 | 706 ± 28 10^3/mm^3 | no effect | no effect | not significantly affected |  |  |  | 
5′-CCGCGCCCATGCCGA-3′ (phosphorothioate backbone, further chemistry not given here) [β1-AS-ODN, 15-mer antisense ODN targeted to the AUG start codon of rat β1-AR mRNA] | abolished | 6.93 ± 0.08 | 5.48 ± 0.41 10^3/mm^3 | 46.2 ± 0.63 | 685 ± 12 10^3/mm^3 | markedly attenuated | beneficial effects; also recorded: markedly attenuated | attenuated the increase | no change | more effective than atenolol | equivalent to or even better than atenolol | to a greater extent than atenolol
